Reference: patent publication US20200078290A1, “Cosmetic Composition Comprising Extract Of Medicinal Herbs As Active Ingredient” (LG Household & Health Care Ltd., priority 2016, published 2020)

Key:
[1] = test system: RAW264.7 cell line; experiment: Inhibition of NO production in LPS-stimulated RAW264.7 cells (GRIESS method); type: cell-based, mice; conditions: positive control, 10 ppm, RAW264.7, LPS
Protocol: In order to confirm the anti-inflammatory effect and the skin trouble-improving effect of the seven extracts obtained in Preparation Example 1, an experiment on the inhibition of nitrogen monoxide (NO) formation was conducted by the GRIESS method using RAW264.7 cell line (ATCC number: CRL-2278).
Specifically, RAW264.7 cells, which were macrophages of mice, were subcultured several times, and the cultured cells were put into a 24-well plate at a density of 3×10^5 […], and cultured for 24 hours. Subsequently, the cells were replaced with cell culture media containing the above-mentioned 7 kinds of extracts diluted to concentrations of […]. […] 100 μL of the supernatant was collected and transferred to a 96-well plate, and 100 μL of GRIESS solution was added thereto and reacted at room temperature for 10 minutes, and then the absorbance at 540 nm was measured to determine the NO inhibitory effect of the extracts. The NO production inhibition rate (%) was calculated using the following Calculation Equation 2, and the results are shown in Table 6. The experiments were each carried out three times, and the results are expressed as an average value.
Inhibition Rate of NO Production (%)={(Absorbance of negative control−Absorbance of each extract)/Absorbance of negative control}×100 [Calculation Equation 2]

[2] = test system: human-derived fibroblasts; experiment: Promotion of type 1 collagen synthesis in human fibroblasts (PICP EIA kit); type: cell-based; conditions: positive control, 52.85 ppm
Protocol: Seven kinds of extracts obtained in Preparation Example 1 were added to culture media of human-derived fibroblasts in order to confirm the effect of promoting type I collagen synthesis at the cellular level. The synthesized collagen was measured and quantitated using a PICP EIA kit (Procollagen Type I C-Peptide Enzyme Immuno Assay Kit). In order to measure the amount of synthesized collagen, the extracts of Examples 1 to 7 were added to the culture media (DMEM medium) of the fibroblasts at final concentrations of 1,000 ppm and 10,000 ppm, and cultured for 48 hours. The culture broth was collected and the degree of type 1 collagen synthesis was measured with a PICP EIA kit at 450 nm using a spectrophotometer. For the comparison of the effects, the degree of collagen synthesis was measured in the same manner for the culture medium of the fibroblasts not treated with the extract (negative control) and the culture medium (positive control) in which vitamin C was added to a final concentration of 52.85 ppm. The rate of increase in collagen production was calculated as a ratio of collagen production relative to negative control, and the results are shown in Table 3 below. The experiments were conducted four times and the results are expressed as an average value.

Row | Structure (SMILES) | Inhibition Rate of NO Production [1] | Increased rate (collagen production relative to negative control) [2] | Production amount of type 1 collagen ([2]; average of 4)
1 | CNC(=N)NCCC[C@H](N)C(=O)O [L-NMMA, L-NG-monomethylarginine] | 41.0% |  | 
2 | O=C1O[C@H]([C@@H](O)CO)C(O)=C1O [Vitamin C, vitamin C] |  | 64.3% | 246.8 ng/mL
